Measurements reported in patent US20050119304A1, “Urea derivatives” (priority 2001, published 2005).
pIC50: −log10 of the molar value.

Tests used:
human VR1 = biological target: T1, human VR1 (Homo sapiens, UniProt Q8NER1); assay: Capsaicin-induced Ca2+ influx in the human VR1-transfected CHO cell line (Assay 1); format: cell-based; settings: read-out: hVR1 class
T1 construct: The cloned hVR1 cDNA was constructed with pcDNA3 vector and transfected into a CHOluc9aeq cell line; expressed in transfected cells
T1 sequence (Q8NER1 whole entry): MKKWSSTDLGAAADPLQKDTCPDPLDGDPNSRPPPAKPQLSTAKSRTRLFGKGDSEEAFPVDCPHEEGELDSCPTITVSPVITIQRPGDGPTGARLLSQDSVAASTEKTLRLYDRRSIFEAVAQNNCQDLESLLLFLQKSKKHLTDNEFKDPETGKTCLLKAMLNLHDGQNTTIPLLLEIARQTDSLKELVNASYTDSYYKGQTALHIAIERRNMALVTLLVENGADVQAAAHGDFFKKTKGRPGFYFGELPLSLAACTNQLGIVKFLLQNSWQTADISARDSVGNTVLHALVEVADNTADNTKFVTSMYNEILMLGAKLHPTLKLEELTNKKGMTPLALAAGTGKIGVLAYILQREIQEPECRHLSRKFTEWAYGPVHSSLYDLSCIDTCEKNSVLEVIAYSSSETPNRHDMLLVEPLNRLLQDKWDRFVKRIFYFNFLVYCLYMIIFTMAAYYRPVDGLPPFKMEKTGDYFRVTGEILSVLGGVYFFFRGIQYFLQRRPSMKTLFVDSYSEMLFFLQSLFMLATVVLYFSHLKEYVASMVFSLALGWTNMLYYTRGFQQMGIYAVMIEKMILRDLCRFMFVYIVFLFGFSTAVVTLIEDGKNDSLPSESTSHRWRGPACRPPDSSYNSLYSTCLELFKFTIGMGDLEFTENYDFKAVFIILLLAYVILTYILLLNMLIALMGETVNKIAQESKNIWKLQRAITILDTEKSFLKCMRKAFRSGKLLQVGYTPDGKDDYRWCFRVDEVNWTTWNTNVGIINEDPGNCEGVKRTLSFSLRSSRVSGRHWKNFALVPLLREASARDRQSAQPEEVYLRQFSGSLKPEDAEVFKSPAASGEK
Text: [Measurement of Capsaicin-Induced Ca^2+ Influx in the Human VR1-Transfected CHO Cell Line] (Assay 1)
(1) Establishment of the Human VR1-CHOluc9aeq Cell Line
Human vanilloid receptor (hVR1) cDNA was cloned from libraries of axotomized dorsal root ganglia (WO2000/29577). The cloned hVR1 cDNA was constructed with pcDNA3 vector and transfected into a CHOluc9aeq cell line. The cell line contains aequorin and CRE-luciferase reporter genes as read-out signals. The transfectants were cloned by limiting dilution in selection medium (DMEM/F12. medium (Gibco BRL) supplemented with 10% FCS, 1.4 mM Sodium pyruvate, 20 mM HEPES, 0.15% Sodium bicarbonate, 100 U/ml penicillin, 100 μg/ml strept mycin, 2 mM glutamine, non-essential amino acids and 2 mg/ml G418). Ca^2+ influx was examined in the capsaicin-stimulated clones. A high responder clone was selected and used for further experiments in the project. The human VR1-CHOluc9aeq cells were maintained in the selection medium and passaged every 3-4 days at 1-2.5×10^5 cells/flask ([…]).
(2) Measurement of Ca^2+ Influx Using FDSS-3000
Human VR1-CHOluc9aeq cells were suspended in a culture medium which is the same as the selection medium except for G418 and seeded at a density of 1,000 cells per well into 384-well plates (black walled clear-base/Nalge Nunc International). Following the culture for 48 hrs the medium was changed to 2 μM Fluo-3 AM (Molecular Probes) and 0.02% Puronic F-127 in assay buffer (Hank's balanced salt solution (HBSS), 17 mM HEPES (pH7.4), 1 mM Probenecid, 0.1% BSA) and the cells were incubated for 60 min at 25° C. After washing twice with assay buffer the cells were incubated with a test compound or vehicle for 20 min at 25° C. Mobilization of cytoplasmic Ca^2+ was measured by FDSS-3000 (λex=488 nm, λem=540 nm/Hamamatsu Photonics) for 60 sec after the stimulation with 10 nM capsaicin. Integral R was calculated and compared with controls.
The data corresponds to the compounds as yielded by solid phase synthesis and thus to levels of purity of about 40 to 90%.

With `Cc1nc2cc(NC(=O)Nc3cc(C(F)(F)F)ccc3Cl)ccc2s1` [Example 32] as the compound, how does the pIC50 (human VR1) read?
Its pIC50 is over 7.00.

And the melting point?
Its melting point is 240 to 241 °C.

With `O=C(Nc1ccc(Cl)c(C(F)(F)F)c1)Nc1cccc2[nH]nnc12` [Example 4] as the compound, how does the pIC50 (human VR1) read?
Its pIC50 is 6.30 to 7.00.

What about the melting point of the same compound?
The melting point was 232 to 235 °C.

With `CSc1cccc(NC(=O)Nc2ccc3[nH]c(C(F)(F)F)nc3c2)c1` [Example 77] as the compound, how does the pIC50 (human VR1) read?
Its pIC50 is 6.00 to 6.30.

And the melting point?
Its melting point is 226 to 228 °C.

With `O=C(Nc1ccc(Cl)cc1)Nc1cccc2[nH]ccc12` [Example 91] as the compound, how does the pIC50 (human VR1) read?
The pIC50 was 6.30 to 7.00.

What about the melting point of the same compound?
The melting point was 247 to 248 °C.

What does the source list for `COc1ccc(CNC(=O)Nc2cccc3[nH]ccc23)cc1` [Example 102]?
pIC50 (human VR1): 6.00 to 6.30; melting point: 201 to 202 °C

With `Cc1cccc(NC(=O)Nc2cccc3[nH]ccc23)c1` [Example 33] as the compound, how does the pIC50 (human VR1) read?
The pIC50 was 6.30 to 7.00.

And the melting point?
Its melting point is 237 to 239 °C.

With `O=C(Nc1ccc(F)cc1)Nc1cccc2[nH]ccc12` [Example 35] as the compound, how does the pIC50 (human VR1) read?
Its pIC50 is 6.30 to 7.00.

What about the melting point of the same compound?
Its melting point is 239 to 241 °C.

With `O=C(Nc1cccc2ccccc12)Nc1cccc2[nH]ccc12` [Example 62] as the compound, how does the pIC50 (human VR1) read?
Its pIC50 is over 7.00.

And the melting point?
The melting point was over 250 °C.

Which results are given for `O=C(Nc1ccccc1Cl)Nc1cccc2[nH]ccc12` [Example 95]?
pIC50 (human VR1): 6.30 to 7.00; melting point: 244 to 246 °C

With `COc1ccc(NC(=O)Nc2cccc3[nH]ccc23)cc1` [Example 61] as the compound, how does the pIC50 (human VR1) read?
The pIC50 was 6.00 to 6.30.

What about the melting point of the same compound?
Its melting point is 230 to 232 °C.

With `Cc1nc2cc(NC(=O)Nc3ccc(C)c(Cl)c3)ccc2s1` [Example 31] as the compound, how does the pIC50 (human VR1) read?
The pIC50 was over 7.00.

And the melting point?
The melting point was 230 to 232 °C.

With `O=C(Nc1cccc(F)c1)Nc1cccc2[nH]ccc12` [Example 90] as the compound, how does the pIC50 (human VR1) read?
Its pIC50 is 6.00 to 6.30.

What about the melting point of the same compound?
Its melting point is 225 to 226 °C.

With `O=C(Nc1ccc(Cl)c(C(F)(F)F)c1)Nc1ccc2[nH]ncc2c1` [Example 3] as the compound, how does the pIC50 (human VR1) read?
The pIC50 was over 7.00.

And the melting point?
The melting point was over 250 °C.

With `O=C(Nc1ccc(Cl)c(Cl)c1)Nc1cccc2[nH]ccc12` [Example 63] as the compound, how does the pIC50 (human VR1) read?
The pIC50 was over 7.00.

What about the melting point of the same compound?
Its melting point is 244 to 245 °C.

What does the source list for `CSc1cccc(NC(=O)Nc2ccc3[nH]ccc3c2)c1` [Example 71]?
pIC50 (human VR1): 6.30 to 7.00; melting point: 236 to 239 °C

Which results are given for `CC(=O)c1cccc(NC(=O)Nc2cccc3[nH]ccc23)c1` [Example 83]?
pIC50 (human VR1): 6.00 to 6.30; melting point: 205 to 207 °C

What does the source list for `CC(C)c1ccc(NC(=O)Nc2cccc3[nH]ccc23)cc1` [Example 66]?
pIC50 (human VR1): > 7.00; melting point: 222 to 224 °C

With `Cc1nc2c(NC(=O)Nc3ccc(C(C)C)cc3)cccc2[nH]1` [Example 55] as the compound, how does the pIC50 (human VR1) read?
Its pIC50 is 6.30 to 7.00.

What about the melting point of the same compound?
Its melting point is 216 to 218 °C.

With `Cc1nc2cc(NC(=O)Nc3ccc(Cl)c(C(F)(F)F)c3)ccc2[nH]1` [Example 48] as the compound, how does the pIC50 (human VR1) read?
Its pIC50 is 6.00 to 6.30.

And the melting point?
The melting point was 162 to 166 °C.

With `COc1cccc(NC(=O)Nc2cccc3[nH]ccc23)c1` [Example 36] as the compound, how does the pIC50 (human VR1) read?
The pIC50 was 6.30 to 7.00.

What about the melting point of the same compound?
The melting point was 219 to 221 °C.

With `O=C(Nc1ccc(Br)cc1)Nc1ccc2[nH]c(C(F)(F)F)nc2c1` [Example 80] as the compound, how does the pIC50 (human VR1) read?
Its pIC50 is 6.00 to 6.30.

And the melting point?
Its melting point is over 250 °C.

Which results are given for `O=C(Nc1ccc(Br)cc1)Nc1ccc2[nH]ccc2c1` [Example 74]?
pIC50 (human VR1): 6.00 to 6.30; melting point: > 250 °C

With `O=C(Nc1ccc(Cl)c(C(F)(F)F)c1)Nc1ccc2[nH]nnc2c1` [Example 10] as the compound, how does the pIC50 (human VR1) read?
The pIC50 was 6.30 to 7.00.

And the melting point?
The melting point was over 250 °C.

With `O=C(Nc1ccc(Oc2ccccc2)cc1)Nc1ccc2[nH]cnc2c1` [Example 58] as the compound, how does the pIC50 (human VR1) read?
Its pIC50 is 6.30 to 7.00.

What about the melting point of the same compound?
Its melting point is 235 to 237 °C.

Which results are given for `COc1ccccc1NC(=O)Nc1cccc2[nH]ccc12` [Example 84]?
pIC50 (human VR1): 6.00 to 6.30; melting point: 208 to 209 °C

With `Cc1nc2cc(NC(=O)Nc3cccc4ccccc34)ccc2s1` [Example 40] as the compound, how does the pIC50 (human VR1) read?
Its pIC50 is over 7.00.

What about the melting point of the same compound?
The melting point was over 250 °C.

Which results are given for `O=C(Nc1cccc(-c2ccccc2)c1)Nc1ccc2[nH]ccc2c1` [Example 46]?
pIC50 (human VR1): 6.30 to 7.00; melting point: 204 to 206 °C

With `O=C(Nc1ccc(Oc2ccccc2)cc1)Nc1ccc2[nH]c(C(F)(F)F)nc2c1` [Example 75] as the compound, how does the pIC50 (human VR1) read?
Its pIC50 is 6.00 to 6.30.

And the melting point?
Its melting point is 239 to 241 °C.

With `COc1ccc(NC(=O)Nc2ccc3sc(C)nc3c2)cc1` [Example 28] as the compound, how does the pIC50 (human VR1) read?
The pIC50 was 6.30 to 7.00.

What about the melting point of the same compound?
The melting point was 215 to 217 °C.

With `O=C(Nc1ccc(Cl)c(C(F)(F)F)c1)Nc1ccc2cc[nH]c2c1` [Example 6] as the compound, how does the pIC50 (human VR1) read?
The pIC50 was 6.30 to 7.00.

And the melting point?
The melting point was 245 to 248 °C.

With `O=C(Nc1ccc(Cl)c(C(F)(F)F)c1)Nc1ccc2[nH]ccc2c1` [Example 5] as the compound, how does the pIC50 (human VR1) read?
The pIC50 was 6.30 to 7.00.

What about the melting point of the same compound?
The melting point was 234 to 235 °C.

With `Cc1nc2cc(NC(=O)Nc3ccc(C(C)C)cc3)ccc2[nH]1` [Example 50] as the compound, how does the pIC50 (human VR1) read?
The pIC50 was 6.00 to 6.30.

And the melting point?
The melting point was over 250 °C.

Which results are given for `O=C(Nc1ccc(Cl)c(Cl)c1)Nc1ccc2[nH]c(C(F)(F)F)nc2c1` [Example 81]?
pIC50 (human VR1): 6.00 to 6.30; melting point: 240 to 242 °C

With `Cc1nc2cc(NC(=O)Nc3ccc(C)c(Cl)c3)ccc2[nH]1` [Example 51] as the compound, how does the pIC50 (human VR1) read?
Its pIC50 is 6.00 to 6.30.

What about the melting point of the same compound?
Its melting point is 200 to 204 °C.

With `CSc1cccc(NC(=O)Nc2ccc3c(c2)S(=O)(=O)C=C3)c1` [Example 42] as the compound, how does the pIC50 (human VR1) read?
The pIC50 was 6.30 to 7.00.

And the melting point?
The melting point was 212 to 213 °C.

With `CC(C)c1ccc(NC(=O)Nc2ccc3[nH]cnc3c2)cc1` [Example 59] as the compound, how does the pIC50 (human VR1) read?
The pIC50 was 6.00 to 6.30.

What about the melting point of the same compound?
The melting point was 226 to 229 °C.

With `O=C(Nc1ccc(Oc2ccccc2)cc1)Nc1cccc2[nH]ccc12` [Example 37] as the compound, how does the pIC50 (human VR1) read?
Its pIC50 is 6.30 to 7.00.

What about the melting point of the same compound?
Its melting point is 212 to 214 °C.

With `Cc1nc2c(NC(=O)Nc3ccc(Oc4ccccc4)cc3)cccc2[nH]1` [Example 54] as the compound, how does the pIC50 (human VR1) read?
Its pIC50 is over 7.00.

And the melting point?
Its melting point is 223 to 225 °C.

With `Cc1nc2cc(NC(=O)Nc3ccc(Br)cc3)ccc2[nH]1` [Example 52] as the compound, how does the pIC50 (human VR1) read?
The pIC50 was 6.00 to 6.30.

What about the melting point of the same compound?
Its melting point is over 250 °C.

With `COc1cccc(NC(=O)Nc2ccc3sc(C)nc3c2)c1` [Example 24] as the compound, how does the pIC50 (human VR1) read?
Its pIC50 is 6.30 to 7.00.

And the melting point?
The melting point was 199 to 201 °C.

With `O=C(Nc1ccc(Oc2ccccc2)cc1)Nc1cccc2cc[nH]c12` [Example 12] as the compound, how does the pIC50 (human VR1) read?
The pIC50 was 6.30 to 7.00.

And the melting point?
Its melting point is 216 to 218 °C.

Which results are given for `CSc1cccc(NC(=O)Nc2ccc3sc(C)nc3c2)c1` [Example 21]?
pIC50 (human VR1): 6.30 to 7.00; melting point: 225 to 227 °C

With `Cc1nc2cc(NC(=O)Nc3ccc(C(C)C)cc3)ccc2s1` [Example 39] as the compound, how does the pIC50 (human VR1) read?
The pIC50 was over 7.00.

What about the melting point of the same compound?
Its melting point is 208 to 210 °C.

Which results are given for `Cc1nc2cc(NC(=O)Nc3cccc(-c4ccccc4)c3)ccc2s1` [Example 56]?
pIC50 (human VR1): 6.30 to 7.00; melting point: 216 to 219 °C

With `Cc1nc2cc(NC(=O)Nc3ccc(Cl)c(C(F)(F)F)c3)ccc2s1` [Example 16] as the compound, how does the pIC50 (human VR1) read?
Its pIC50 is over 7.00.

What about the melting point of the same compound?
The melting point was 152 to 155 °C.

With `Cc1nc2cc(NC(=O)Nc3ccc(F)cc3)ccc2s1` [Example 22] as the compound, how does the pIC50 (human VR1) read?
The pIC50 was over 7.00.

And the melting point?
Its melting point is 241 to 242 °C.
